Structures are written as SMILES.

For the experiment, the system named is HBV. In words: HBV-DNA Antiviral Assay Using HepG2.117 Cells (intracellular HBV DNA by qPCR). Type of experiment: cell-based, hepatitis B virus (genotype D). Particulars: Hepatitis B virus, HepG2.117. The method, then: The following assay procedure describes the HBV antiviral assay, using HepG2.117 cells, which carry a stably integrated genotype D HBV genome under the control of a Tet-off promoter, and intracellular HBV DNA quantification as endpoint. Cell viability is assessed in parallel by measuring the intracellular ATP content using ATPlite (Perkin Elmer).
On day 0, HepG2.117 cells (which are maintained in routine cell culture with doxycycline present in the medium at a final concentration of 1 μg/mL) were seeded in 96-well plates (white with clear bottom) at a density of 2.0×10^4 cells/well (0.1 mL/well) in medium without doxycycline to induce pgRNA transcription and subsequent formation of HBV particles. The cells were incubated at 37° C. and 5% CO2.
On day 1, medium was removed from each well, the test articles were diluted in culture medium without doxcycyline and 100 μL was added to cell culture wells (9 concentrations, 4-fold dilution). For each plate, 6 untreated (merely DMSO) wells were included. The final concentration of DMSO in the culture medium was 2%. Each plate was prepared in duplicate (one for HBV DNA extraction, one for ATPlite measurement). The cells were incubated at 37° C. and 5% CO2 for 3 days.
On day 4, cell viability was assessed using ATPlite and cell lysates were prepared for HBV DNA extraction and subsequent quantification by qPCR.
Medium was removed from each well and 100 μL of 0.33% NP-40 in H2O was added to each well. Plates were sealed, incubated at 4° C. for 5 mins, vortexed extensively and centrifuged briefly. Next, 35 μL of lysate was added to 65 μL QuickExtract DNA Extraction Solution (Epicentre) in a PCR plate for each well. PCR plate was incubated at 65° C. for 6 mins, 98° C. for 2 mins and finally cooled to 4° C. HBV DNA was then quantified by qPCR with HBV-specific primers and probes as specified in Table 3 using the Bio-Rad SSOAdvanced Universal Probes Supermix on a CFX96 machine (Bio-Rad). The PCR cycle program consisted of 95° C. for 3 mins, followed by 40 cycles at 95° C. for 10 sec and 60° C. for 30 sec.
A DNA standard was prepared by dilution of an IDT gBlock corresponding to the amplicon with concentrations ranging from 10^2 to 10^8 copies/input (i.e. per 4 μL) and used to generate a standard curve by plotting Cq values vs. HBV DNA standard concentration. The quantity of HBV DNA in each sample was determined by interpolating from the standard curve.
Cell viability was calculated as follows: % Cell viability=(luminescence value of test sample)/(average luminescence value of 2% DMSO control)×100%. HBV DNA inhibition was calculated as follows: 100−(HBV DNA copy number of test sample)/(average HBV DNA copy number of 2% DMSO control)×100%. No normalization to entecavir was required due to the excellent dynamic window of this assay. The CC50, EC50 and EC90 values were determined by dose-response curves fitted by GraphPad Prism using “log (agonist) vs. response—Variable slope”.
`COc1ccc(-n2c(C(=O)NC(C(N)=O)c3ccccc3)c3n(c2=O)CCN(C(=O)c2ccc(Br)c(Cl)c2)C3)cc1` (racemic) [Example 206, 7-(4-bromo-3-chloro-benzoyl)-2-(4-methoxyphenyl)-3-oxo-N-[rac-(1R)-2-amino-2-oxo-1-phenyl-ethyl]-6,8-dihydro-5H-imidazo[1,5-a]pyrazine-1-carboxamide] yielded an EC50 greater than 5000 nM. Then `O=C(NCc1c(F)cccc1F)c1c2n(c(=O)n1-c1ccc(OC3CC3)cc1)CCN(C(=O)c1ccc(Br)c(Cl)c1)C2` [Example 306, 7-(4-bromo-3-chloro-benzoyl)-2-[4-(cyclopropoxy)phenyl]-N-[(2,6-difluorophenyl)methyl]-3-oxo-6,8-dihydro-5H-imidazo[1,5-a]pyrazine-1-carboxamide], with 100 to 500 nM. `COc1ccc(-n2c(C(=O)NCc3ccccc3)c3n(c2=O)CCN(C(=O)c2ccc(Cl)c(Cl)c2)C3)cc1Cl` [Example 50, N-benzyl-2-(3-chloro-4-methoxy-phenyl)-7-(3,4-dichlorobenzoyl)-3-oxo-6,8-dihydro-5H-imidazo[1,5-a]pyrazine-1-carboxamide] showed an EC50 greater than 5000 nM.

In turn, `COc1ccc(CN2Cc3c4n(c(=O)n3C[C@@H](O)C2)CCN(C(=O)c2ccc(Br)c(Cl)c2)C4)c(F)c1` (stereo in doubt) [Example 289, rac-(11S)-4-(4-bromo-3-chloro-benzoyl)-13-[(2-fluoro-4-methoxy-phenyl)methyl]-11-hydroxy-4,7,9,13-tetrazatricyclo[7,5.0.0^2,7]tetradec-1-ene-8,14-dione] displayed an EC50 of 100 to 500 nM.

`C[C@H]1Cn2c(c(C(=O)NCc3ccccc3)n(-c3ccc(OC4CC4)cc3)c2=O)CN1C(=O)c1ccc(Br)c(Cl)c1` (racemic) [Example 302, rac-(6S)-N-benzyl-7-(4-bromo-3-chloro-benzoyl)-2-[4-(cyclopropoxy)phenyl]-6-methyl-3-oxo-6,8-dihydro-5H-imidazo[1,5-a]pyrazine-1-carboxamide]: the EC50 lay in the range of 100 to 500 nM. Next, `O=C(NCc1ccccc1-c1cccnn1)c1c2n(c(=O)n1-c1ccc(OCC(F)(F)F)cc1)CCN(C(=O)c1ccc(Br)c(Cl)c1)C2` [Example 388, 7-(4-bromo-3-chloro-benzoyl)-3-oxo-N-[(2-pyridazin-3-ylphenyl)methyl]-2-[4-(2,2,2-trifluoroethoxy)phenyl]-6,8-dihydro-5H-imidazo[1,5-a]pyrazine-1-carboxamide]: less than 100 nM.

On to `O=C(NCc1ccccc1-c1ccncn1)c1c2n(c(=O)n1-c1ccc(OC3CC3)cc1)CCN(C(=O)c1ccc(Br)c(Cl)c1)C2` [Example 424, 7-(4-bromo-3-chloro-benzoyl)-2-[4-(cyclopropoxy)phenyl]-3-oxo-N-[(2-pyrimidin-4-ylphenyl)methyl]-6,8-dihydro-5H-imidazo[1,5-a]pyrazine-1-carboxamide], for which the EC50 is less than 100 nM. Next, `O=C(NCc1ccccc1)c1c2n(c(=O)n1-c1ccc(N3CCC(F)(F)C3)cc1)CCN(C(=O)c1ccc(Br)c(Cl)c1)C2` [Example 392, N-benzyl-7-(4-bromo-3-chloro-benzoyl)-2-[4-(3,3-difluoropyrrolidin-1-yl)phenyl]-3-oxo-6,8-dihydro-5H-imidazo[1,5-a]pyrazine-1-carboxamide]: 100 to 500 nM; `COc1ccc(CN2Cc3c4n(c(=O)n3C[C@H](O)C2)CCN(C(=O)c2ccc(Br)c(Cl)c2)C4)c(F)c1` (stereo in doubt) [Example 288, rac-(11R)-4-(4-bromo-3-chloro-benzoyl-13-[(2-fluoro-4-methoxy-phenyl)methyl]-11-hydroxy-4,7,9,13-tetrazatricyclo[7.5.0.0^2,7]tetradec-1-ene-8,14-dione]: 100 to 500 nM. `COc1ccc(CNC(=O)c2c3n(c(=O)n2-c2ccc(OC(C)C)cc2)CCN(C(=O)c2ccc(Br)c(Cl)c2)C3)c(OC)c1` [Example 228, 7-(4-bromo-3-chloro-benzoyl)-N-[(2,4-dimethoxypehnyl)methyl]-2-(4-isopropoxyphenyl)-3-oxo-6,8-dihydro-5H-imidazo[1,5-a]pyrazine-1-carboxamide] showed an EC50 of 100 to 500 nM.

`COc1ccc([C@@H](C)NC(=O)c2c3n(c(=O)n2-c2ccc(OC4CC4)cc2)CC(C)N(C(=O)c2ccc(Br)c(Cl)c2)C3)cc1` (mixture of isomers) [Example 449, (6RS)-7-(4-bromo-3-chloro-benzoyl)-2-[4-(cyclopropoxy)phenyl]-N-[(1R)-1-(4-methoxyphenyl)ethyl]-6-methyl-3-oxo-6,8-dihydro-5H-imidazo[1,5-a]pyrazine-1-carboxamide]: the EC50 lay in the range of 500 to 5000 nM. In turn, `COc1ccc([C@H](C)NC(=O)c2c3n(c(=O)n2-c2ccc(OC4CC4)cc2)CC(C)N(C(=O)c2ccc(Br)c(Cl)c2)C3)cc1` (mixture of isomers) [Example 437, (6RS)-7-(4-bromo-3-chloro-benzoyl)-2-[4-(cyclopropoxy)phenyl]-N-[(1S)-1-(4-methoxyphenyl)ethyl]-6-methyl-3-oxo-6,8-dihydro-5H-imidazo[1,5-a]pyrazine-1-carboxamide] yielded an EC50 of 500 to 5000 nM.

`COc1ccc(-n2c(C(=O)NCc3ccccc3-n3cccn3)c3n(c2=O)CCN(C(=O)c2ccc(Br)c(Cl)c2)C3)cc1` [Example 167, 7-(4-bromo-3-chloro-benzoyl)-2-(4-methoxyphenyl)-3-oxo-N-[(2-pyrazol-1-ylphenyl)methyl]-6,8-dihydro-5H-imidazo[1,5-a]pyrazine-1-carboxamide] yielded an EC50 of less than 100 nM.

In turn, `COc1ccc(-n2c(C(=O)Nc3ccccc3)c3n(c2=O)CCN(C(=O)c2ccc(Cl)c(Cl)c2)C3)cc1` [Example 83, 7-(3,4-dichlorobenzoyl)-2-(4-methoxyphenyl)-3-oxo-N-phenyl-6,8-dihydro-5H-imidazo[1,5-a]pyrazine-1-carboxamide] yielded an EC50 greater than 5000 nM. Then `CNC(=O)c1cccc(-n2c(C(=O)NCc3ccccc3)c3n(c2=O)CCN(C(=O)c2ccc(Br)c(Cl)c2)C3)c1` [Example 48, N-benzyl-7-(4-bromo-3-chloro-benzoyl)-2-[3-(methylcarbamoyl)phenyl]-3-oxo-6,8-dihydro-5H-imidazo[1,5-a]pyrazine-1-carboxamide], with 500 to 5000 nM; and `COc1cccc(-n2c(C(=O)NCc3ccccc3)c3n(c2=O)CCN(C(=O)c2ccc(Br)c(Cl)c2)C3)c1` [Example 41, N-benzyl-7-(4-bromo-3-chloro-benzoyl)-2-(3-methoxyphenyl)-3-oxo-6,8-dihydro-5H-imidazo[1,5-a]pyrazine-1-carboxamide], with 500 to 5000 nM.

As for `COc1ccc(-n2c(C(=O)N[C@H](C)c3ccccc3F)c3n(c2=O)CCN(C(=O)c2ccc(Br)c(Cl)c2)C3)cc1` (stereo in doubt) [Example 161, 7-(4-bromo-3-chloro-benzoyl)-2-(4-methoxyphenyl)-3-oxo-N-[rac-(1R)-1-(2-fluorophenyl)ethyl]-6,8-dihydro-5H-imidazo[1,5-a]pyrazine-1-carboxamide], the EC50 was less than 100 nM. `CC(C)(Oc1ccc(CNC(=O)c2c3n(c(=O)n2-c2ccc(OCC(F)(F)F)cc2)CCN(C(=O)c2ccc(Br)c(Cl)c2)C3)c(F)c1)C(N)=O` [Example 428, N-[[4-(2-amino-1,1-dimethyl-2-oxo-ethoxy)-2-fluoro-phenyl]methyl]-7-(4-bromo-3-chloro-benzoyl)-3-oxo-2-[4-(2,2,2-trifluoroethoxy)phenyl]-6,8-dihydro-5H-imidazo[1,5-a]pyrazine-1-carboxamide]: the EC50 lay within 100 to 500 nM. As to `COc1ccc(-n2c(C(=O)NCc3ccccc3)c3n(c2=O)CC(C)N(C(=O)c2ccc(Br)c(Cl)c2)C3)cc1` (racemic) [Example 198, rac-(6R)-N-benzyl-7-(4-bromo-3-chloro-benzoyl)-2-(4-methoxyphenyl)-6-methyl-3-oxo-6,8-dihydro-5H-imidazo[1,5-a]pyrazine-1-carboxamide], the EC50 lay within 500 to 5000 nM. Next, `COc1ccc(-n2c(C(=O)N[C@H](c3ccccc3)C(F)(F)F)c3n(c2=O)CCN(C(=O)c2ccc(Br)c(Cl)c2)C3)cc1` (stereo in doubt) [Example 208, 7-(4-bromo-3-chloro-benzoyl)-2-(4-methoxyphenyl)-3-oxo-N-[rac-(1R)-2,2,2-trifluoro-1-phenyl-ethyl]-6,8-dihydro-5H-imidazo[1,5-a]pyrazine-1-carboxamide]: 100 to 500 nM.
